Test results as given in US20170190671A1, “BIS(ARYL)CATECHOL DERIVATIVES AS HERBICIDES” (E I DU PONT DE NEMOURS AND COMPANY, priority 2014, published 2017).

Legend:
Assay in all cases: Test C preemergence
Type in all cases: in vivo
[1] = tested on: barnyardgrass (Echinochloa crus-galli); details: Echinochloa crus-galli, pre-emergence, read-out: Plant response rating, Barnyardgrass
Outline: (§1)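 Greenhouse test; preemergence on seeded loam-sand soil or spray on 1- to 4-leaf plants; solvent + surfactant vehicle; 13-15 day hold; visual comparison with controls; 0 (no effect)-100 (complete control).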

[2] = tested on: yellow nutsedge (Cyperus esculentus); details: Cyperus, pre-emergence, 336 h, scale 0 to 100, read-out: Plant response rating, Nutsedge, Yellow
Outline: as §1

[3] = tested on: large (Lg) crabgrass (Digitaria sanguinalis); details: Digitaria sanguinalis, pre-emergence, 336 h, scale 0 to 100, read-out: Plant response rating, Crabgrass, Large
Outline: as §1

[4] = tested on: Italian ryegrass (Lolium multiflorum); details: Lolium multiflorum, pre-emergence, 336 h, scale 0 to 100, read-out: Plant response rating, Ryegrass, Italian
Outline: as §1

[5] = tested on: ragweed (common ragweed, Ambrosia elatior); details: Ambrosia artemisiifolia, pre-emergence, 336 h, scale 0 to 100, read-out: Plant response rating, Ragweed
Outline: as §1

[6] = tested on: winter wheat (Triticum aestivum); details: Triticum aestivum, pre-emergence, 336 h, scale 0 to 100, read-out: Plant response rating, Wheat
Outline: as §1

[7] = tested on: blackgrass (Alopecurus myosuroides); details: Alopecurus myosuroides, pre-emergence, 336 h, scale 0 to 100, read-out: Plant response rating, Blackgrass
Outline: as §1

[8] = tested on: waterhemp (common waterhemp, Amaranthus rudis); details: Amaranthus tuberculatus, pre-emergence, scale 0 to 100, read-out: Plant response rating, Waterhemp
Outline: as §1

[9] = tested on: oilseed rape (Brassica napus); details: Brassica napus, pre-emergence, scale 0 to 100, read-out: Plant response rating, Oilseed Rape
Outline: as §1

[10] = tested on: velvetleaf (Abutilon theophrasti); details: Abutilon theophrasti, pre-emergence, scale 0 to 100, read-out: Plant response rating, Velvetleaf
Outline: as §1

[11] = tested on: corn (Zea mays); details: Zea mays, pre-emergence, 336 h, scale 0 to 100
Outline: as §1

[12] = tested on: galium (catchweed bedstraw, Galium aparine); details: Galium, pre-emergence, 336 h, scale 0 to 100, read-out: Plant response rating, Galium
Outline: as §1

[13] = tested on: soybean (Glycine max); details: Glycine max, pre-emergence, scale 0 to 100, read-out: Plant response rating, Soybean
Outline: as §1

[14] = tested on: lambsquarters (Chenopodium album); details: Chenopodium album, pre-emergence, 336 h, scale 0 to 100, read-out: Plant response rating, Lambsquarters
Outline: as §1

[15] = tested on: giant foxtail (Setaria faberii); details: Setaria faberi, pre-emergence, 336 h, scale 0 to 100, read-out: Plant response rating, Foxtail, Giant
Outline: as §1

N#Cc1cccc(Oc2ncc(Cl)cn2)c1Oc1cnc(Cl)cn1 [Compound 32, 2-[(5-chloro-2-pyrazinyl)oxy]-3-[(5-chloro-2-pyrimidinyl)oxy]benzonitrile]
pest or weed control at 31 g/ha ([1]; 31 g ai/ha, preemergence, scale 0 to 100): 85%
pest or weed control at 62 g/ha ([1]; 62 g ai/ha, preemergence, scale 0 to 100): 98%
pest or weed control at 125 g/ha ([1]; 125 g ai/ha, preemergence, scale 0 to 100): 100%
pest or weed control at 16 g/ha ([1]; Preemergence, 16 g ai/ha, scale 0 to 100 (0 no effect, 100 complete control)): 50%
pest or weed control at 31 g/ha ([2]; 31 g ai/ha, preemergence): 35%
pest or weed control at 62 g/ha ([2]; 62 g ai/ha, preemergence): 60%
pest or weed control at 125 g/ha ([2]; 125 g ai/ha, preemergence): 75%
pest or weed control at 16 g/ha ([2]; Preemergence, 16 g ai/ha): 5%
pest or weed control at 31 g/ha ([3]; 31 g ai/ha, preemergence): 98%
pest or weed control at 62 g/ha ([3]; 62 g ai/ha, preemergence): 100%
pest or weed control at 125 g/ha ([3]; 125 g ai/ha, preemergence): 100%
pest or weed control at 16 g/ha ([3]; Preemergence, 16 g ai/ha): 98%
pest or weed control at 31 g/ha ([4]; 31 g ai/ha, preemergence): 50%
pest or weed control at 62 g/ha ([4]; 62 g ai/ha, preemergence): 80%
pest or weed control at 125 g/ha ([4]; 125 g ai/ha, preemergence): 90%
pest or weed control at 16 g/ha ([4]; Preemergence, 16 g ai/ha): 5%
pest or weed control at 31 g/ha ([5]; 31 g ai/ha, preemergence): 20%
pest or weed control at 62 g/ha ([5]; 62 g ai/ha, preemergence): 10%
pest or weed control at 125 g/ha ([5]; 125 g ai/ha, preemergence): 50%
pest or weed control at 16 g/ha ([5]; Preemergence, 16 g ai/ha): 10%
plant injury at 31 g/ha ([6]; 31 g ai/ha, preemergence): 0%
plant injury at 62 g/ha ([6]; 62 g ai/ha, preemergence): 0%
plant injury at 125 g/ha ([6]; 125 g ai/ha, preemergence): 5%
plant injury at 16 g/ha ([6]; Preemergence, 16 g ai/ha): 0%
pest or weed control at 31 g/ha ([7]; 31 g ai/ha, preemergence): 70%
pest or weed control at 62 g/ha ([7]; 62 g ai/ha, preemergence): 90%
pest or weed control at 125 g/ha ([7]; 125 g ai/ha, preemergence): 95%
pest or weed control at 16 g/ha ([7]; Preemergence, 16 g ai/ha): 0%
pest or weed control at 31 g/ha ([8]; 31 g ai/ha, preemergence): 100%
pest or weed control at 62 g/ha ([8]; 62 g ai/ha, preemergence): 100%
pest or weed control at 125 g/ha ([8]; 125 g ai/ha, preemergence): 100%
pest or weed control at 16 g/ha ([8]; Preemergence, 16 g ai/ha): 100%
plant injury at 31 g/ha ([9]; 31 g ai/ha, preemergence): 95%
plant injury at 62 g/ha ([9]; 62 g ai/ha, preemergence): 95%
plant injury at 125 g/ha ([9]; 125 g ai/ha, preemergence): 95%
plant injury at 16 g/ha ([9]; Preemergence, 16 g ai/ha): 10%
pest or weed control at 31 g/ha ([10]; 31 g ai/ha, preemergence): 40%
pest or weed control at 62 g/ha ([10]; 62 g ai/ha, preemergence): 75%
pest or weed control at 125 g/ha ([10]; 125 g ai/ha, preemergence): 85%
pest or weed control at 16 g/ha ([10]; Preemergence, 16 g ai/ha): 5%
Corn plant response rating (crop injury, 0 = no effect, 100 = complete kill) at 31 g/ha ([11]; 31 g ai/ha, preemergence): 60%
Corn plant response rating (crop injury, 0 = no effect, 100 = complete kill) at 62 g/ha ([11]; 62 g ai/ha, preemergence): 65%
Corn plant response rating (crop injury, 0 = no effect, 100 = complete kill) at 125 g/ha ([11]; 125 g ai/ha, preemergence): 65%
Corn plant response rating (crop injury, 0 = no effect, 100 = complete kill) at 16 g/ha ([11]; Preemergence, 16 g ai/ha): 5%
pest or weed control at 31 g/ha ([12]; 31 g ai/ha, preemergence): 95%
pest or weed control at 62 g/ha ([12]; 62 g ai/ha, preemergence): 95%
pest or weed control at 125 g/ha ([12]; 125 g ai/ha, preemergence): 95%
pest or weed control at 16 g/ha ([12]; Preemergence, 16 g ai/ha): 10%
plant injury at 31 g/ha ([13]; 31 g ai/ha, preemergence): 45%
plant injury at 62 g/ha ([13]; 62 g ai/ha, preemergence): 45%
plant injury at 125 g/ha ([13]; 125 g ai/ha, preemergence): 90%
plant injury at 16 g/ha ([13]; Preemergence, 16 g ai/ha): 55%
pest or weed control at 31 g/ha ([14]; 31 g ai/ha, preemergence): 90%
pest or weed control at 62 g/ha ([14]; 62 g ai/ha, preemergence): 90%
pest or weed control at 125 g/ha ([14]; 125 g ai/ha, preemergence): 100%
pest or weed control at 16 g/ha ([14]; Preemergence, 16 g ai/ha): 60%
pest or weed control at 31 g/ha ([15]; 31 g ai/ha, preemergence): 98%
pest or weed control at 62 g/ha ([15]; 62 g ai/ha, preemergence): 100%
pest or weed control at 125 g/ha ([15]; 125 g ai/ha, preemergence): 100%
pest or weed control at 16 g/ha ([15]; Preemergence, 16 g ai/ha): 85%
